In ChEMBL document CHEMBL5058642, “Data for DCP probe TP-051” (2022):

How the values were obtained:
[1] = molecular target: Alpha-2A adrenergic receptor (Homo sapiens) (UniProt P08913); details: Compound concentration 10.0 uM
[2] = species on record: Homo sapiens; assay: Chemokine CXCR1/2 (IL-8, Non-selective) Eurofins-Panlabs radioligand binding assay; details: Compound concentration 10.0 uM
[3] = molecular target: ATP-sensitive inward rectifier potassium channel 11 (Cricetulus griseus) (UniProt A0A3L7HHE1); assay: Inhibition of Potassium Channel [KATP] at 10 µM in the Eurofins-Panlabs radioligand binding assay (Eurofins_assay_265600); details: Cricetinae; Compound concentration 10.0 uM
[4] = species on record: Rattus norvegicus; assay: Opiate, Non-Selective Eurofins-Panlabs radioligand binding assay; set-up: ligand concentration 1 nM; details: Compound concentration 10.0 uM
[5] = molecular target: Muscarinic acetylcholine receptor M5 (Homo sapiens) (UniProt P08912); details: Compound concentration 10.0 uM
[6] = molecular target: T1, Muscarinic acetylcholine receptor M1 (Homo sapiens) (UniProt P11229); assay: Muscarinic M1 Eurofins-Panlabs radioligand binding assay; details: Compound concentration 10.0 uM
T1 sequence (whole entry): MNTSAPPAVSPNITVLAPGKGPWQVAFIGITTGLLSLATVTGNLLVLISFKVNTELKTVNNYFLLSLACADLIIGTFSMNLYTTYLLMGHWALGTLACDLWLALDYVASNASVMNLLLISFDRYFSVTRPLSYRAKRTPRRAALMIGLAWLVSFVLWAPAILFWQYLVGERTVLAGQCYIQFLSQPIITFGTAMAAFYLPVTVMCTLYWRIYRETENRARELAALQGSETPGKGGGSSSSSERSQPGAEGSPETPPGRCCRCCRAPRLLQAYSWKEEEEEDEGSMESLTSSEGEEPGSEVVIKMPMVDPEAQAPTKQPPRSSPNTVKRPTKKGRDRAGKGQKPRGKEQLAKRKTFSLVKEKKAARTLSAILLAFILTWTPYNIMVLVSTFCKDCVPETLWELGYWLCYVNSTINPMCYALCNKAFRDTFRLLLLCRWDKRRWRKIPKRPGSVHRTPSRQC

[7] = species on record: Rattus norvegicus; assay: Inhibition of Glycine, Strychnine-Sensitive at 10 µM in the Eurofins-Panlabs radioligand binding assay (Eurofins_assay_239000); details: Compound concentration 10.0 uM
[8] = molecular target: Insulin receptor (Homo sapiens) (UniProt P06213); details: Rattus norvegicus; Compound concentration 10.0 uM
Chain of Insulin receptor (Homo sapiens) (P06213 28-758 limits assumed): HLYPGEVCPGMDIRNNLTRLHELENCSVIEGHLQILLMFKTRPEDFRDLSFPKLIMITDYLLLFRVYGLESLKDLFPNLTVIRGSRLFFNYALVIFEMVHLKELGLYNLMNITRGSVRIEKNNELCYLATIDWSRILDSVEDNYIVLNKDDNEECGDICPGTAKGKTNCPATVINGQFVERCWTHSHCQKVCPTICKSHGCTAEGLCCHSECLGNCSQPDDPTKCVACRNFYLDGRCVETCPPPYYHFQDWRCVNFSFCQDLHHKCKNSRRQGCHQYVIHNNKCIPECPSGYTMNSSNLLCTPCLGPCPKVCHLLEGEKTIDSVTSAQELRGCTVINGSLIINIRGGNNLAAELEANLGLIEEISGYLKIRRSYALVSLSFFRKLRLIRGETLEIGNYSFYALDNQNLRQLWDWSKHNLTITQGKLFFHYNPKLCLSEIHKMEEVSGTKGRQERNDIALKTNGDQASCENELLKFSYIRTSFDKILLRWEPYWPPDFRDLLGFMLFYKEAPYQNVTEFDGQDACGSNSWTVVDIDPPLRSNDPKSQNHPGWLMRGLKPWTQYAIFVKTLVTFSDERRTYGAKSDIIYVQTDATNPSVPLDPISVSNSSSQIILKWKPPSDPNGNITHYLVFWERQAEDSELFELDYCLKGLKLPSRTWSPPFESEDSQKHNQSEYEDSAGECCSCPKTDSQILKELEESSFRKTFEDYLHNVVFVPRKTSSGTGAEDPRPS
Chain of Insulin receptor (Homo sapiens) (P06213 763-1382 limits assumed): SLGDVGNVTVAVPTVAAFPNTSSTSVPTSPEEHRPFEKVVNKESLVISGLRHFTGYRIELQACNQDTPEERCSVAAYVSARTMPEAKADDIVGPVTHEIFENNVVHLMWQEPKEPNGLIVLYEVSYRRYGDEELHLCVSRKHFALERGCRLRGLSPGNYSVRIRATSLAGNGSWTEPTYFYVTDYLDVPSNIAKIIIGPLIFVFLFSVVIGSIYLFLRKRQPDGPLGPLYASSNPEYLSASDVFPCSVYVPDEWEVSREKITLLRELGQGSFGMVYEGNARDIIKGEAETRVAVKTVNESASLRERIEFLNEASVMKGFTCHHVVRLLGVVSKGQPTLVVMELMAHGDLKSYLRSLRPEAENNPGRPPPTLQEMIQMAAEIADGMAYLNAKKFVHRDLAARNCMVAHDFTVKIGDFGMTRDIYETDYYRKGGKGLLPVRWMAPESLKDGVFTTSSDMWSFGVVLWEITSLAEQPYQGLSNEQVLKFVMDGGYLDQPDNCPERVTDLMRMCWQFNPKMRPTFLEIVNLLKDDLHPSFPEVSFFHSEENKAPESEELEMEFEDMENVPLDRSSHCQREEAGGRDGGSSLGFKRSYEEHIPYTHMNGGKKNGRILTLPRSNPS

[9] = molecular target: Alpha-2C adrenergic receptor (Homo sapiens) (UniProt P18825); details: Compound concentration 10.0 uM
[10] = species on record: Rattus norvegicus; assay: Serotonin (5-Hydroxytryptamine) 5-HT1, Non-Selective Eurofins-Panlabs radioligand binding assay; format: protein assay; details: Compound concentration 10.0 uM
[11] = molecular target: Histamine H2 receptor (Homo sapiens) (UniProt P25021); details: Compound concentration 10.0 uM
Chain of Histamine H2 receptor (Homo sapiens) (P25021 whole entry): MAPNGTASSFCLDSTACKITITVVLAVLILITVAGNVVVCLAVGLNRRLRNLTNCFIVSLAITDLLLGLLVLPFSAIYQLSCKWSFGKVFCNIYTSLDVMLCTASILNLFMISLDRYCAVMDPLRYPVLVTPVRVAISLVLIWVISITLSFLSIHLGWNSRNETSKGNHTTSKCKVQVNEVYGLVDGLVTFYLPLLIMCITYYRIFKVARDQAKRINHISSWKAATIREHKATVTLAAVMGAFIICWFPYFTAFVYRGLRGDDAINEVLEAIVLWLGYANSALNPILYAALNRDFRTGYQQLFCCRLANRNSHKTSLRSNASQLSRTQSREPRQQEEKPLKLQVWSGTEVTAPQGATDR

[12] = molecular target: 5-hydroxytryptamine receptor 2B (Homo sapiens) (UniProt P41595); details: Compound concentration 10.0 uM
[13] = molecular target: Glutamate NMDA receptor (Rattus norvegicus) (UniProt P35439+Q00959+Q00960+Q00961+Q62645+Q8VHN2+Q9R1M7); details: Compound concentration 10.0 uM
[14] = molecular target: Gamma-aminobutyric acid type B receptor subunit 1 (Homo sapiens) (UniProt Q9UBS5); assay: GABAB1B Eurofins-Panlabs radioligand binding assay; details: Compound concentration 10.0 uM
Chain of Gamma-aminobutyric acid type B receptor subunit 1 (Homo sapiens) (Q9UBS5 whole entry): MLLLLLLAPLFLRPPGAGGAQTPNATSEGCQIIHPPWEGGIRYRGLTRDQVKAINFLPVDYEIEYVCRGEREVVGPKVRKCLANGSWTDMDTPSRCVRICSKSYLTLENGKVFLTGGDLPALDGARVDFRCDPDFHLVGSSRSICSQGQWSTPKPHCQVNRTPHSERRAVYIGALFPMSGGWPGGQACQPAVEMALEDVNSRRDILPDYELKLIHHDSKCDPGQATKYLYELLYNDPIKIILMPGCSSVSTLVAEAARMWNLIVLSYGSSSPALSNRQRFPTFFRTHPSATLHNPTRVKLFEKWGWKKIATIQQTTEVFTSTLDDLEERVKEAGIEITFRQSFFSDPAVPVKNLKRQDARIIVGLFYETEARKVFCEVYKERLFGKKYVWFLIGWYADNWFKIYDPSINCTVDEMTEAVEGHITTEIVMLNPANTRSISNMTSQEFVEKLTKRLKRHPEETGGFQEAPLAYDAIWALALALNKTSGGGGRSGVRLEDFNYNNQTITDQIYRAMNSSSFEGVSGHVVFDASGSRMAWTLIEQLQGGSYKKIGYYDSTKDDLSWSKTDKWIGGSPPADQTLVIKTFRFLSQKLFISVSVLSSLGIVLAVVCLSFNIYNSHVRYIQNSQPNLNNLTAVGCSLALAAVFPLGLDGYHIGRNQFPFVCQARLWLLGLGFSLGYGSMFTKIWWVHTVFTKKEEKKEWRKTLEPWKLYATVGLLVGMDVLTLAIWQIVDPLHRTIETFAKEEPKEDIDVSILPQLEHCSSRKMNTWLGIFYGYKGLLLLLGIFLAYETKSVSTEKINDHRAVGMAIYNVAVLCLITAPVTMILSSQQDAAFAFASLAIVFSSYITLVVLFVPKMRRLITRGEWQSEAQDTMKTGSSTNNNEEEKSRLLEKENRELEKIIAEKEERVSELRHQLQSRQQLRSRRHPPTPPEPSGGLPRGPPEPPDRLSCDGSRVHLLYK

[15] = molecular target: B2 bradykinin receptor (Homo sapiens) (UniProt P30411); assay: Bradykinin B2 Eurofins-Panlabs radioligand binding assay; details: Compound concentration 10.0 uM
Chain of B2 bradykinin receptor (Homo sapiens) (P30411 whole entry): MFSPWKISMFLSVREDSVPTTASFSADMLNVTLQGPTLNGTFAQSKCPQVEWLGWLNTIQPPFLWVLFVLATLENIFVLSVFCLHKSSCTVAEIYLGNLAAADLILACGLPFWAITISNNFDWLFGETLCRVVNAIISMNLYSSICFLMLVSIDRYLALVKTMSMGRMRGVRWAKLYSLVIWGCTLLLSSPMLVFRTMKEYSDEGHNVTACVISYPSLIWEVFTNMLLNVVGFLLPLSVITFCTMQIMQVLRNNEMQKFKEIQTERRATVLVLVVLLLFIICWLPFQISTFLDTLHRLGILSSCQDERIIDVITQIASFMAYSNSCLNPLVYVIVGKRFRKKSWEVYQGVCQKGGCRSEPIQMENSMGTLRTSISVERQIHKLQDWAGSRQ

[16] = molecular target: 5-hydroxytryptamine receptor 1E (Homo sapiens) (UniProt P28566); details: Compound concentration 10.0 uM
[17] = molecular target: Sigma non-opioid intracellular receptor 1 (Homo sapiens) (UniProt Q99720); details: Compound concentration 10.0 uM
[18] = molecular target: Substance-K receptor (Homo sapiens) (UniProt P21452); assay: Inhibition of Tachykinin NK2 at 10 µM in the Eurofins-Panlabs radioligand binding assay (Eurofins_assay_255600); set-up: ligand concentration 0.5 nM; details: Compound concentration 10.0 uM
Chain of Substance-K receptor (Homo sapiens) (P21452 whole entry): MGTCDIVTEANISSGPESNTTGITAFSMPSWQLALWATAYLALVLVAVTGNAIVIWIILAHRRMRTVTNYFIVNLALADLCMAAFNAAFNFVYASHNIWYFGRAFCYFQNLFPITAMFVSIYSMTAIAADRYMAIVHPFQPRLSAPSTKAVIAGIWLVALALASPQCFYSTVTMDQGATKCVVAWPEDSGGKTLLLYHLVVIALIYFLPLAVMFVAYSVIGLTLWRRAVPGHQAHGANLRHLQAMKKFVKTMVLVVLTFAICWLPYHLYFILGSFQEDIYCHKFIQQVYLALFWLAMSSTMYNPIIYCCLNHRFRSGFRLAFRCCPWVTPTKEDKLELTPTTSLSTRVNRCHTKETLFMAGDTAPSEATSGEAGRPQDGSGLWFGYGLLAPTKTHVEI

[19] = species on record: Rattus norvegicus; assay: Testosterone Eurofins-Panlabs radioligand binding assay; set-up: ligand concentration 1.5 nM; details: Compound concentration 10.0 uM
[20] = molecular target: Progesterone receptor (Homo sapiens) (UniProt P06401); assay: Inhibition of Progesterone PR-B at 10 µM in the Eurofins-Panlabs radioligand binding assay (Eurofins_assay_268020); set-up: ligand concentration 1.4 nM; details: Compound concentration 10.0 uM
[21] = molecular target: Vasopressin V1b receptor (Homo sapiens) (UniProt P47901); assay: Inhibition of Vasopressin V1B at 10 µM in the Eurofins-Panlabs radioligand binding assay (Eurofins_assay_287560); set-up: ligand concentration 1 nM; details: Compound concentration 10.0 uM
[22] = molecular target: Cholecystokinin receptor type A (Homo sapiens) (UniProt P32238); assay: Inhibition of Cholecystokinin CCK1 (CCKA) at 10 µM in the Eurofins-Panlabs radioligand binding assay (Eurofins_assay_218020); details: Compound concentration 10.0 uM
[23] = molecular target: Histamine H2 receptor (Homo sapiens) (UniProt P25021); details: Compound concentration 10.0 uM; remark: listed apart in the source
[24] = molecular target: Vasopressin V1a receptor (Homo sapiens) (UniProt P37288); assay: Vasopressin V1A Eurofins-Panlabs radioligand binding assay; set-up: ligand concentration 0.01 nM; details: Compound concentration 10.0 uM
Chain of Vasopressin V1a receptor (Homo sapiens) (P37288 whole entry, looked up): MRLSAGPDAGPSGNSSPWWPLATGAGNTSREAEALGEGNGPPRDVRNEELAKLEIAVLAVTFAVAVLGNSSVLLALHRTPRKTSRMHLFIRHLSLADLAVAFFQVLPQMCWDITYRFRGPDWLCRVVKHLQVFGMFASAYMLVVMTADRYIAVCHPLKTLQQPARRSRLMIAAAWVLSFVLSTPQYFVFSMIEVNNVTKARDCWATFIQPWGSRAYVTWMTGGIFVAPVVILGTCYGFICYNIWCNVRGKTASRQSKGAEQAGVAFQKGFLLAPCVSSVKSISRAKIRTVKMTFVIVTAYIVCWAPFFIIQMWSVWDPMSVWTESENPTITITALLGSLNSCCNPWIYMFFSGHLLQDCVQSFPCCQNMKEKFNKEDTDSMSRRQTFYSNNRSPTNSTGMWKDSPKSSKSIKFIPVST

[25] = molecular target: Adenosine receptor A1 (Homo sapiens) (UniProt P30542); details: Compound concentration 10.0 uM
[26] = molecular target: Adenosine receptor A3 (Homo sapiens) (UniProt P0DMS8); details: Compound concentration 10.0 uM
Chain of Adenosine receptor A3 (Homo sapiens) (P0DMS8 whole entry): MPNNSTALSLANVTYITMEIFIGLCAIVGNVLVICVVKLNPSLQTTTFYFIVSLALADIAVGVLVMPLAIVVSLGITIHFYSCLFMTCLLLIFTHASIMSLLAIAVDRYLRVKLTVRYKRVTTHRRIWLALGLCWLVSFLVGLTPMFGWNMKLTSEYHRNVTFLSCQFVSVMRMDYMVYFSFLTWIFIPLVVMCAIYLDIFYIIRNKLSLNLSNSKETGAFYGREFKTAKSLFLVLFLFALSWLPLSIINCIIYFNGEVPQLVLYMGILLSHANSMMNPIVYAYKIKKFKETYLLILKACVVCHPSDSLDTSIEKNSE

[27] = species on record: Homo sapiens; assay: Somatostatin sst2 Eurofins-Panlabs radioligand binding assay; set-up: ligand concentration 0.03 nM; details: Compound concentration 10.0 uM
[28] = molecular target: T2, Muscarinic acetylcholine receptor M2 (Homo sapiens) (UniProt P08172); assay: Muscarinic M2 Eurofins-Panlabs radioligand binding assay; details: Compound concentration 10.0 uM
T2 sequence (whole entry): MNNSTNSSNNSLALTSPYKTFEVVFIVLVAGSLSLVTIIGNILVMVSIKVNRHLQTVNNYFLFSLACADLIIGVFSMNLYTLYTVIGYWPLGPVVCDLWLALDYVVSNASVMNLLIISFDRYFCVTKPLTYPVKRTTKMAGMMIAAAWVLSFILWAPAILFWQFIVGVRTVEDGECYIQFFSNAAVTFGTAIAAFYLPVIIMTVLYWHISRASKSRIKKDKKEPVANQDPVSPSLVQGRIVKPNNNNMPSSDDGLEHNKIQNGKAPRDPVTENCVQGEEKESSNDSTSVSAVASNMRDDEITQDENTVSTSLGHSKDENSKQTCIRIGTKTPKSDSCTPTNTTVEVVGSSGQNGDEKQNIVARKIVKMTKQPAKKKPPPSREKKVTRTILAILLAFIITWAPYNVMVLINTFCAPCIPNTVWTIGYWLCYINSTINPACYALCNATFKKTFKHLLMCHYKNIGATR

[29] = molecular target: Glucocorticoid receptor (Homo sapiens) (UniProt P04150); assay: Glucocorticoid Eurofins-Panlabs radioligand binding assay; details: Compound concentration 10.0 uM
Chain of Glucocorticoid receptor (Homo sapiens) (P04150 whole entry): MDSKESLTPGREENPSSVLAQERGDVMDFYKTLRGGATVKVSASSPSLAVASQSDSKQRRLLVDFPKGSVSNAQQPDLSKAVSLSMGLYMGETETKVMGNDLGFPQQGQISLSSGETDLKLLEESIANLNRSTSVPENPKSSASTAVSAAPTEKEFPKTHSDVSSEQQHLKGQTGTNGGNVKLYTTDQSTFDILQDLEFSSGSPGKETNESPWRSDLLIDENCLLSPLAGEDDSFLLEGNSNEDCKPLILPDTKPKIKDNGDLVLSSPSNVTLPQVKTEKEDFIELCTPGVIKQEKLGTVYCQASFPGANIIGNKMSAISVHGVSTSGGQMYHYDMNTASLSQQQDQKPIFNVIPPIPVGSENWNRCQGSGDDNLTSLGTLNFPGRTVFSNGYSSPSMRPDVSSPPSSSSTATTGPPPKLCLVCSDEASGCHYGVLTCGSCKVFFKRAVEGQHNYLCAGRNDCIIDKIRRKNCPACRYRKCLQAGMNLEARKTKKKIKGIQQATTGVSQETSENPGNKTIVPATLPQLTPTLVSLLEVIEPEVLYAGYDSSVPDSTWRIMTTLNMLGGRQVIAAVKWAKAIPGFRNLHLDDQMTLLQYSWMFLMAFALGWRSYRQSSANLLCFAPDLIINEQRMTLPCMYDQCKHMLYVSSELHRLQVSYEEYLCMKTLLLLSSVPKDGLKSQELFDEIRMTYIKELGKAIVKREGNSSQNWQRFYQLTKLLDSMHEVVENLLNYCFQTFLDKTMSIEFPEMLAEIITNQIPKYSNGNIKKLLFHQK

[30] = molecular target: Type-1 angiotensin II receptor (Homo sapiens) (UniProt P30556); assay: Angiotensin AT1 Eurofins-Panlabs radioligand binding assay; details: Compound concentration 10.0 uM
[31] = molecular target: D(3) dopamine receptor (Homo sapiens, UniProt P35462); details: Compound concentration 10.0 uM
[32] = molecular target: D(2) dopamine receptor (Homo sapiens) (UniProt P14416); details: Compound concentration 10.0 uM
[33] = molecular target: Beta-1 adrenergic receptor (Homo sapiens) (UniProt P08588); details: Compound concentration 10.0 uM

Measured: inhibition

Cc1cc(OC2CCS(=O)(=O)CC2)cc(C)c1-c1cccc(COc2ccc(C(=O)O)c(F)c2)c1
inactive: [1] 13.1% | [2] 4% | [3] -3% | [4] 3% | [5] -4.74% | [6] -7% | [7] 5% | [8] 0% | [9] -4.04% | [10] -9% | [11] 2% | [12] 3% | [13] 7% | [14] 10% | [15] -4% | [16] -1.42% | [17] 16.7% | [18] 3% | [19] 26% | [20] 6% | [21] -4% | [22] -9% | [23] 7.66% | [24] -4% | [25] -4% | [26] 0% | [27] -6% | [28] -3% | [29] 14% | [30] 1% | [31] 4% | [32] -4% | [33] -0.49%

Cc1cc(OC2CCS(=O)(=O)CC2)cc(C)c1-c1cccc(COc2ccc(CCC(=O)O)c(F)c2)c1
inactive: [1] 13% | [2] 3% | [3] 19% | [4] -8% | [5] 20.4% | [6] -9% | [7] 7% | [8] 7% | [9] 5.47% | [10] 16% | [11] 26% | [12] 21.5% | [13] 8% | [14] 1% | [15] 7% | [16] 3.83% | [17] 8.9% | [18] 29% | [19] 17% | [20] 10% | [21] -4% | [22] 4% | [23] 5.95% | [24] 0% | [25] -1% | [26] 5% | [27] 5% | [28] 4% | [29] 0% | [30] 14% | [31] -7% | [32] -2% | [33] 14.4%
